# Measured values: publication PMC7187334 (Clinical Pharmacology in Drug Development, 2019)
# Entries after “also recorded” stand apart in the source; their conditions may differ. Marks after values point to notes of the source that are not given here.
# What was measured:
# CYP2D6 = conditions: in vitro; read-out: IC50, CYP2D6 inhibition; cited from earlier work
# CYP2C8 = conditions: in vitro; read-out: IC50, CYP2C8 inhibition; cited from earlier work
# [1] = test system: leukotriene B4 production; conditions: healthy volunteers, first-in-human study; 95% CI 4.8-5.8 nM; read-out: IC50, inhibition of leukotriene B4 production, whole-blood ex vivo stimulation assay; cited from earlier work
# P‐glycoprotein = P‐glycoprotein (Homo sapiens, UniProt P08183); experiment: P-glycoprotein inhibition in vitro; type: in vitro ADME
# [2] = test system: leukotriene B4 production in human leukocytes; conditions: in vitro; cited from earlier work
# CYP3A4 = conditions: in vitro; read-out: IC50, CYP3A4 inhibition; cited from earlier work
# CYP2C9 = conditions: in vitro; read-out: IC50, CYP2C9 inhibition; cited from earlier work
# [3] = Phase 1 crossover study: AZD5718 plasma pharmacokinetics; type: in vivo, human; conditions: for AUC(0-inf) / AUC(0-t) / half-life / Tmax / Cmax: human, plasma, oral; for AUC(0-inf): AZD5718 AUC0-inf; for AUC(0-t): AZD5718 AUC0-last; for half-life: AZD5718 t1/2 lambda z; for Tmax: AZD5718 tmax, median (range); for Cmax: AZD5718 Cmax
# Experimental: The primary objective was to evaluate the pharmacokinetics of oral rosuvastatin when administered alone and in combination with oral AZD5718. […] Each participant received 5 single-dose oral study treatments (A-E), with a minimum washout period of 7 days between each treatment period. Participants were randomly assigned to treatments in the order A, B, C, D, E or B, A, C, D, E. Treatments were: […] […] Participants fasted for at least 10 hours before treatment and for at least 4 hours after treatment. Participants receiving treatment E consumed a high-fat breakfast 30 minutes before treatment. Water was permitted as desired except within 1 hour of administration. […] Doses were taken with 240 mL of water. […] At a minimum, each analytical run included a calibration curve, a matrix blank, a control zero sample (matrix blank containing internal standard), a reagent blank, and duplicate quality control samples at 3 concentrations within the calibration range. […] Both assessments were well within the acceptance criteria. […] The pharmacokinetic analysis set for rosuvastatin included all participants who received both rosuvastatin treatments. […] Statistical analyses were performed by […] using SAS version 9.4. Rosuvastatin pharmacokinetics were analyzed using a mixed-effects model, with log-transformed AUC, AUC0-last, and Cmax as the response variables; treatment sequence, period, and treatment as fixed effects; and participant nested within treatment sequence as a random effect. […] LS mean differences and 90%CIs for the effect of formulation or food for log-transformed variables were back transformed to geometric mean ratios and presented as percentages with 90% CIs.
# [4] = healthy volunteers, cited from earlier work
# [5] = biological target: T1, breast cancer resistance protein (BCRP) (Homo sapiens, UniProt Q9UNQ0); experiment: BCRP transporter inhibition in vitro; type: in vitro ADME; conditions: unpublished data
# T1 sequence (Q9UNQ0 1-655): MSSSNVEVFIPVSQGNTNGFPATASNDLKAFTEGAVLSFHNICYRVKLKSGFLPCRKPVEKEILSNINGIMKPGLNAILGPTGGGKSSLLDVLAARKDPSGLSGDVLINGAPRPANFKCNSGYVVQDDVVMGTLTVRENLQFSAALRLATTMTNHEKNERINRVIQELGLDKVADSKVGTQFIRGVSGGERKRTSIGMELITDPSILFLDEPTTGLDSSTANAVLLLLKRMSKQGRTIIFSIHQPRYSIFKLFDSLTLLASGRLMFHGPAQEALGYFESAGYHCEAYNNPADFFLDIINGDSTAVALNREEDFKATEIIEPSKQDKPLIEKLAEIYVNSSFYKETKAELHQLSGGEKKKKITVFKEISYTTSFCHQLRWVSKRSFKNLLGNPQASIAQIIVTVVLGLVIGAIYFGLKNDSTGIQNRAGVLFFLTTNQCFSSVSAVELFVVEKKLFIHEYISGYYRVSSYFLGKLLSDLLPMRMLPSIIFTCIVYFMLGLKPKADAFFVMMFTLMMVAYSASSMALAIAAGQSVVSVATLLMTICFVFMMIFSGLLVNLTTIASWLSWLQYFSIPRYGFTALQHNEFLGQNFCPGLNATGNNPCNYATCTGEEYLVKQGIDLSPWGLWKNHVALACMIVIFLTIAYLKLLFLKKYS
# CYP1A2 = conditions: in vitro; read-out: IC50, CYP1A2 inhibition; cited from earlier work
# [6] = 200 mg suspension, fasted, n = 10
# [7] = 200 mg tablet plus rosuvastatin 10 mg, fasted, n = 12
# [8] = 200 mg, arithmetic mean (SD), 200 mg suspension, fasted, n = 10
# [9] = 200 mg, arithmetic mean (SD), 200 mg tablet, fasted, n = 10
# [10] = 200 mg, arithmetic mean (SD), 200 mg tablet, fed, n = 12
# [11] = 200 mg, geometric mean (%CV), 200 mg suspension, fasted, n = 10
# [12] = 200 mg, geometric mean (%CV), 200 mg tablet, fasted, n = 10
# [13] = 200 mg, geometric mean (%CV), 200 mg tablet, fed, n = 12
# [14] = arithmetic mean (SD), 200 mg tablet plus rosuvastatin 10 mg, fasted, n = 12
# [15] = geometric mean (%CV), 200 mg tablet plus rosuvastatin 10 mg, fasted, n = 12
# [16] = male, 200 mg, geometric mean (%CV), 200 mg suspension, fasted, n = 12
# [17] = male, 200 mg, geometric mean (%CV), 200 mg tablet, fasted, n = 12
# [18] = male, 200 mg, geometric mean (%CV), 200 mg tablet, fed, n = 12
# [19] = male, geometric mean (%CV), 200 mg tablet plus rosuvastatin 10 mg, fasted, n = 12
# [20] = tablets after high-fat breakfast relative to fasting
# Sequence of P‐glycoprotein (P08183 whole entry): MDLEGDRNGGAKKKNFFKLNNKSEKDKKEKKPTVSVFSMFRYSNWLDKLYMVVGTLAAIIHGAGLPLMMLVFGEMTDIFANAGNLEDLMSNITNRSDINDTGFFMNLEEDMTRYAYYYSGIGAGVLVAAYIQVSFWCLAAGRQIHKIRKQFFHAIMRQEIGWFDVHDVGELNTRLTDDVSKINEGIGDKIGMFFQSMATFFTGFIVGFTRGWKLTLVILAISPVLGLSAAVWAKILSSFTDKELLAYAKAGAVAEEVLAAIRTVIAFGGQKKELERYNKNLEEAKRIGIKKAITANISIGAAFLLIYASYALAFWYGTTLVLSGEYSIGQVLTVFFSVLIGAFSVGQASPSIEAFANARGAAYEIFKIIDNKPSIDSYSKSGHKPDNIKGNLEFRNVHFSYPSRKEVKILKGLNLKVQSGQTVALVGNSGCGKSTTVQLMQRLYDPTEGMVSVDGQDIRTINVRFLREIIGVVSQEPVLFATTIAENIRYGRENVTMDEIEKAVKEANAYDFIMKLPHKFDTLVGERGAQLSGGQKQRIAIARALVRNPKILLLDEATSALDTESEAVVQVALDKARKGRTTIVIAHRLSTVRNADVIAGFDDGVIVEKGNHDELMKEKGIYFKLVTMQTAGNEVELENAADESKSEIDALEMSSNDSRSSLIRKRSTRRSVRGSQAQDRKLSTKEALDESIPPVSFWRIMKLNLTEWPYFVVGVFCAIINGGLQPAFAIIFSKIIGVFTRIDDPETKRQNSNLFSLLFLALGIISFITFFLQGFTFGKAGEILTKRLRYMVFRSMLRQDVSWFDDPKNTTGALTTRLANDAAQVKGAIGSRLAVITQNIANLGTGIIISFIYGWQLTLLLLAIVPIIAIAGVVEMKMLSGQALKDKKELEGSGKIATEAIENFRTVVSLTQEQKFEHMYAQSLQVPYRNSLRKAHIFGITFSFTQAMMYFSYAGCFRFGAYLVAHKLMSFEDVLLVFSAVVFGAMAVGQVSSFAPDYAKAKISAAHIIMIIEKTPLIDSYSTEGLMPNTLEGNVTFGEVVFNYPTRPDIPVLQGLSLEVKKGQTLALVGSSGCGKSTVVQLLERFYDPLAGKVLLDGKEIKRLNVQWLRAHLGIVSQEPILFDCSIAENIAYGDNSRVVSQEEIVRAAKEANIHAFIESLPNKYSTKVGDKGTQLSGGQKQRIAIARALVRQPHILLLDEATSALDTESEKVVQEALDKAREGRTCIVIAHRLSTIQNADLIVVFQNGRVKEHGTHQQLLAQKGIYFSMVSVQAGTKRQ
smiles,measurement,setting,value
Cc1cc(-c2ccc(C(=O)[C@@H]3CCCC[C@H]3C(=O)Nc3cnn4c3C(=O)NCC4)cc2)n[nH]1 [AZD5718],IC50,CYP2D6,> 20 µM
same,IC50,CYP2C8,> 20 µM
same,IC50,[1],5.3 nM
same,IC50,P‐glycoprotein,> 100 µM
same,IC50,[2],39 nM
same,IC50,CYP3A4,> 20 µM
same,IC50,CYP2C9,> 20 µM
same,"AZD5718 CL/F, arithmetic mean (SD)",[3]; [6],93.55 (20.40) ^a L/h
same,"AZD5718 CL/F, geometric mean (%CV)",[3]; [6],91.5 (22.2) ^a L/h
same,"AZD5718 CL/F, arithmetic mean (SD)",[3]; [7],127.6 (28.12) L/h
same,"AZD5718 CL/F, geometric mean (%CV)",[3]; [7],124.6 (22.6) L/h
same,"AZD5718 Cmax, ratio of geometric LS means","[3]; 200 mg tablet vs oral suspension, fasted, 90% CI 36%-57%",45%
same,"AZD5718 AUC0-inf (relative bioavailability), geometric LS mean ratio","[3]; 200 mg tablet vs oral suspension, fasted, 90% CI 64%-80%",72%
same,"AZD5718 CL/F, arithmetic mean (SD)","[3]; 200 mg tablet, fasted, n = 10",128.1 (25.63) ^a L/h
same,"AZD5718 CL/F, geometric mean (%CV)","[3]; 200 mg tablet, fasted, n = 10",126.0 (20.1) ^a L/h
same,"AZD5718 AUC0-inf (relative bioavailability), geometric LS mean ratio","[3]; 200 mg tablet, fed (high-fat breakfast) vs fasted, 90% CI 87%-106%",96%
same,"AZD5718 Cmax, geometric LS mean ratio","[3]; 200 mg tablet, fed vs fasted, 90% CI 63%-95%",77%
same,"AZD5718 CL/F, arithmetic mean (SD)","[3]; 200 mg tablet, fed, n = 12",136.9 (25.53) L/h
same,"AZD5718 CL/F, geometric mean (%CV)","[3]; 200 mg tablet, fed, n = 12",134.4 (20.4) L/h
same,Effect of rosuvastatin coadministration on AZD5718 pharmacokinetics,[3]; AZD5718 200 mg tablet plus rosuvastatin 10 mg vs tablet alone,unaffected; also recorded: not affected
same,Between-participant variability (CV) of AUC0-inf and AUC0-last,[3]; AZD5718 tablets,< 25%
same,AUC(0-inf),[3]; [8],5 µM·h
same,AUC(0-inf),[3]; [9],3.62 µM·h
same,AUC(0-inf),[3]; [10],3.4 µM·h
same,AUC(0-inf),[3]; [11],4.89 µM·h
same,AUC(0-inf),[3]; [12],3.56 µM·h
same,AUC(0-inf),[3]; [13],3.33 µM·h
same,AUC(0-t),"[3]; 200 mg, arithmetic mean (SD), 200 mg suspension, fasted, n = 12",4.75 µM·h
same,AUC(0-t),"[3]; 200 mg, arithmetic mean (SD), 200 mg tablet, fasted, n = 12",3.49 µM·h
same,AUC(0-t),[3]; [10],3.27 µM·h
same,half-life,[3]; [8],816 min
same,half-life,[3]; [9],840 min
same,half-life,[3]; [10],822 min
same,half-life,[3]; [11],792 min
same,half-life,[3]; [12],792 min
same,half-life,[3]; [13],810 min
same,Tmax,"[3]; 200 mg, 200 mg suspension, fasted, n = 12",1 h
same,Tmax,"[3]; 200 mg, 200 mg tablet, fed, n = 12",4 h
same,AUC(0-inf),[3]; [14],3.67 µM·h
same,AUC(0-inf),[3]; [15],3.59 µM·h
same,AUC(0-t),[3]; [14],3.55 µM·h
same,half-life,[3]; [14],900 min
same,half-life,[3]; [15],834 min
same,Tmax,[3]; [7],2.01 h
same,Decrease in AZD5718 Cmax,[3]; immediate-release tablets relative to oral suspension,about 55%
same,AUC(0-t),[3]; [16],4.65 µM·h
same,AUC(0-t),[3]; [17],3.43 µM·h
same,AUC(0-t),[3]; [18],3.21 µM·h
same,Cmax,"[3]; male, 200 mg, arithmetic mean (SD), 200 mg suspension, fasted, n = 12",1250 nM
same,Cmax,"[3]; male, 200 mg, arithmetic mean (SD), 200 mg tablet, fasted, n = 12",565 nM
same,Cmax,"[3]; male, 200 mg, arithmetic mean (SD), 200 mg tablet, fed, n = 12",427 nM
same,Cmax,[3]; [16],1170 nM
same,Cmax,[3]; [17],530 nM
same,Cmax,[3]; [18],409 nM
same,AUC(0-t),[3]; [19],3.46 µM·h
same,Cmax,"[3]; male, arithmetic mean (SD), 200 mg tablet plus rosuvastatin 10 mg, fasted, n = 12",567 nM
same,Cmax,[3]; [19],545 nM
same,Decrease in AZD5718 Cmax,[3]; [20],about 23%
same,Delay in AZD5718 tmax,[3]; [20],about 1 hour
same,time to steady-state levels,"[4]; oral suspension, multiple doses",about 3 days
same,tolerability,[4]; single oral doses 25-1200 mg and multiple doses 60-600 mg,"well tolerated, with no identified safety concerns"
same,IC50,[5],20 µM
same,IC50,CYP1A2,> 20 µM
